Measured values taken from article PMC8066730, “Alteration of Anticancer and Protein-Binding Properties of Gold(I) Alkynyl by Phenolic Schiff Bases Moieties” (Pharmaceutics, 2021).

Legend:
[1] = test system: HOP-62 (non-small-cell lung cancer cell line); test: SRB cytotoxicity assay, HOP-62; assay type: cell-based, human; conditions: 3 days incubation, DMSO solutions
Procedure: (§1) The cells were obtained by the Egyptian Holding Company for Biological Products and Vaccines (VACSERA) and then maintained in the tissue culture unit. Cells were grown in RPMI-1640 medium, supplemented with 10% heat inactivated FBS, 50 units/mL of penicillin, and […] of streptomycin, and maintained in a humidified atmosphere with 5% carbon dioxide. The cells were kept as monolayer cultures by serial sub-culturing, using cell culture reagents from Lonza (Basel, Switzerland). The antitumor activities of the complexes were assessed against OVCAR-3 (ovarian carcinoma cancer) and HOP-62 (non-small-cell lung cancer) cell lines.
(§2) The sulforhodamine B (SRB) assay method was applied to determine the cytotoxicity, as described in the literature. Exponentially growing cells were collected using 0.25% Trypsin-EDTA and seeded in 96-well plates at 1000–2000 cells/well in RBMI-1640 supplemented medium. The cells were kept in the medium for 24 h and then incubated for 3 days with various concentrations of the gold compounds. Following 3 days of treatment, the cells were fixed with 10% Cl3CCOOH for 60 min at 4 °C. Wells were stained for 10 min at room temperature with 0.4% SRBC dissolved in 1% CH3COOH. The plates were air dried for 24 h, and the dye was dissolved in Tris-HCl for 5 min with shaking at 1600 rpm. The optical density of each well was evaluated spectrophotometrically at 564 nm with an ELISA microplate reader (ChroMate-4300, Orlando, FL, USA). The half […] inhibitory concentration (IC50) values were calculated from a Boltzmann sigmoidal concentration response curve using nonlinear regression fitting models (Graph Pad, Prism Version 9, San Diego, CA, USA).

[2] = test system: OVCAR-3 (ovarian carcinoma cancer cell line); test: SRB cytotoxicity assay, OVCAR-3; assay type: cell-based; conditions: for IC50: 3 days incubation, SRB, DMSO solutions
Procedure: as §1, §2

[3] = target: human serum albumin (HSA) (Homo sapiens, UniProt P02768); test: HSA fluorescence quenching binding study; design: Kq (quenching rate constant): unit not given here; conditions: for n (number of binding sites) / Ksv (Stern–Volmer quenching constant) / Kq (quenching rate constant) / ∆G^0 (Gibbs free energy of binding to HSA): 295 K; for Ksv (Stern–Volmer quenching constant): HSA 32 µM, Tris-HCl/NaCl buffer pH 7.4, ca. 20% DMSO; for Kq (quenching rate constant): Ksv = Kq × τ0, τ0 = 7 ns; for ∆G^0 (Gibbs free energy of binding to HSA): calculated from Kb; for fold enhancement in HSA binding affinity on replacing triphenylphosphine with tricyclohexylphosphine: proceeding from 1 to 2 and 3 to 5; for fold increase in HSA binding affinity on introducing the o-phenolic moiety: proceeding from 1 to 3 and 2 to 5
Procedure: Human serum albumin (HSA) solution (32 µM) was prepared in Tris-HCl/NaCl aqueous buffer (pH = 7.4). The solution was titrated with different concentrations of complexes 1–5 in DMSO (the amount of DMSO was maintained at ca. 20% v/v). The changes in the emission intensity of the protein were followed at around 330 nm upon excitation at 275 nm after incubating the complexes for 4 min at 295 K. The Stern–Volmer quenching constants (KSV) were obtained from Equation (1), where Io and I are the emission intensities of the protein in the absence and the presence of the complexes, respectively. The […]; the KSV value was defined as the slope of the line. The Stern–Volmer constant is related to the quenching constant by Equation (2), where Kq is the quenching rate constant, and τ0 is the average lifetime of the fluorescence for free HSA (τ0 = 7 ns). The binding constant (Kb, M^−1) and the number of binding sites (n) were calculated by plotting log[Io − I/I] against Log [Au complex], where the slope equals n and the intercept is equivalent to Log Kb according to Equation (3). Gibbs free energy (∆G^0) of the binding to HSA protein can be calculated by employing Equation (4), using the binding constant (Kb, M^−1). I0/I = 1 + Ksv [Au complex](1) Ksv = Kq × τ0(2) Log(I0 − I)/I = Log Kb + n Log [Au complex](3) ∆G^0 = −R × T × Ln × Kb(4)

Sequence of human serum albumin (HSA) (P02768 25-609): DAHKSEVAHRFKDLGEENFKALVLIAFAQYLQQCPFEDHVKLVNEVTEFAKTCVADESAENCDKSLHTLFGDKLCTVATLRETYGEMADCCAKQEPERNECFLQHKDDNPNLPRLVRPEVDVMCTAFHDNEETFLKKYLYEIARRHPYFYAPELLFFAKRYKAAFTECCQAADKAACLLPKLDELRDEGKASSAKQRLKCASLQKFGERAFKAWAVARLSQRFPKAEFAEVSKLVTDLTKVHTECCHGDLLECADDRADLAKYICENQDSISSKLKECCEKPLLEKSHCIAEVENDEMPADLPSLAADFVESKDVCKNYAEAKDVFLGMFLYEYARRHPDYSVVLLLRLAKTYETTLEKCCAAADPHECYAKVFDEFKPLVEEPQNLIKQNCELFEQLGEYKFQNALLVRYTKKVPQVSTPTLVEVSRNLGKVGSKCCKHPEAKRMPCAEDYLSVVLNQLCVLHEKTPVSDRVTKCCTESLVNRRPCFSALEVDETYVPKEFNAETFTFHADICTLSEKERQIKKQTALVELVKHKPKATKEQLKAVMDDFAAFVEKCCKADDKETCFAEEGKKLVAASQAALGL

Compound: Oc1ccc(N=Cc2ccc(C#[C][Au][PH](c3ccccc3)(c3ccccc3)c3ccccc3)cc2)cc1 [Compound 4, HO–4–C6H4–N=C–4-C6H4-C≡C–Au-PPh3]
- IC50 [1]: 8.16 ± 0.43 µM
- IC50 [2]: 5.27 ± 0.11 µM
- cytotoxic activity against OVCAR-3 in words ([2]; compared with cisplatin): comparable to that of cisplatin
- n (number of binding sites) [3]: 1.61
- Ksv (Stern–Volmer quenching constant) [3]: 71.5 ×10^4
- Kq (quenching rate constant) [3]: 102.21 ×10^12
- ∆G^0 (Gibbs free energy of binding to HSA) [3]: -12.4 kcal/mol
- HSA binding constant relative to complex 3 (2-hydroxy) ([3]; ratio of Kb, complex 4 vs complex 3): 6400 times

Compound: N.N.[Cl][Pt][Cl] [cisplatin, reference compound]
- IC50 [1]: 3.91 ± 0.2 µM
- IC50 [2]: 5.89 ± 0.12 µM

Compound: Au(C≡C-C6H4-4-CHO)(PPh3) [Compound 1]
- IC50 [1]: 12.5 ± 0.43 µM
- IC50 [2]: 13.7 ± 0.53 µM
- n (number of binding sites) [3]: 0.82
- Ksv (Stern–Volmer quenching constant) [3]: 4.7 ×10^4
- Kq (quenching rate constant) [3]: 6.71 ×10^12
- ∆G^0 (Gibbs free energy of binding to HSA) [3]: -5.07 kcal/mol

Compound: HO–2–C6H4–N=C–4-C6H4-C≡C–Au-PCy3 [Compound 5]
- IC50 [1]: 7.55 ± 0.43 µM
- IC50 [2]: 9.11 ± 0.12 µM
- n (number of binding sites) [3]: 1.37
- Ksv (Stern–Volmer quenching constant) [3]: 37.1 ×10^4
- Kq (quenching rate constant) [3]: 52.96 ×10^12
- ∆G^0 (Gibbs free energy of binding to HSA) [3]: -10.27 kcal/mol
- fold enhancement in HSA binding affinity on replacing triphenylphosphine with tricyclohexylphosphine [3]: 170 fold
- fold increase in HSA binding affinity on introducing the o-phenolic moiety [3]: 240 fold

Compound: HO–2–C6H4–N=C–4-C6H4-C≡C–Au-PPh3 [Compound 3]
- IC50 [1]: 7.25 ± 0.21 µM
- IC50 [2]: 9.4 ± 0.17 µM
- n (number of binding sites) [3]: 0.96
- Ksv (Stern–Volmer quenching constant) [3]: 38.9 ×10^4
- Kq (quenching rate constant) [3]: 55.57 ×10^12
- ∆G^0 (Gibbs free energy of binding to HSA) [3]: -7.239 kcal/mol
- fold increase in HSA binding affinity on introducing the o-phenolic moiety [3]: 40 fold

Compound: OHC-4-C6H4-C≡C-Au-PCy3 [Compound 2]
- IC50 [1]: 14.82 ± 0.13 µM
- IC50 [2]: 15.9 ± 0.53 µM
- n (number of binding sites) [3]: 1.16
- Ksv (Stern–Volmer quenching constant) [3]: 2.8 ×10^4
- Kq (quenching rate constant) [3]: 4.00 ×10^12
- ∆G^0 (Gibbs free energy of binding to HSA) [3]: -7.15 kcal/mol
- fold enhancement in HSA binding affinity on replacing triphenylphosphine with tricyclohexylphosphine [3]: 30 fold
